Test results as given in paper PMC11845477, “Exploring the principles behind antibiotics with limited resistance” (Nature Communications, 2025).

Assays:
[1] = tested on: P. aeruginosa ATCC BAA-3107 (SEN) and P. aeruginosa LESB58 (MDR); experiment: microbe, parasite or virus in culture; type: cell-based, Pseudomonas aeruginosa; details: for MIC: across three biological replicates
How it was run: (§1)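 Broth microdilution in cation-adjusted Mueller-Hinton Broth 2 (except SCH79797), 11–16-step serial dilutions, 5 × 10^5 cells/mL, 37 °C with shaking for 18 h, 2 replicates. MIC is the lowest concentration giving complete growth inhibition (OD600 < 0.05); relative MIC = MIC evolved/MIC ancestor.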

[2] = tested on: A. baumannii ATCC 17978 (SEN) and A. baumannii ATCC BAA-1605 (MDR); experiment: microbe, parasite or virus in culture; type: cell-based, Acinetobacter baumannii; details: for MIC: across three biological replicates
How it was run: as §1

[3] = tested on: K. pneumoniae ATCC 10031 (SEN) and K. pneumoniae ATCC 700603 (MDR); experiment: microbe, parasite or virus in culture; type: cell-based, Klebsiella pneumoniae; details: for MIC: across three biological replicates
How it was run: as §1

[4] = tested on: K. pneumoniae ATCC 10031 (SEN) and K. pneumoniae ATCC 700603 (MDR); experiment: Adaptive laboratory evolution (ALE), relative MIC of evolved lines; type: cell-based, Klebsiella pneumoniae; details: for Relative MIC: ALE
How it was run: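 Ten parallel populations per antibiotic–ancestor pair were evolved in MHB at 37 °C, starting near 50% growth-inhibiting drug. Every 72 h they were passaged into 0.5–2.5× increasing concentrations, keeping the highest-drug well with OD600 > 0.2.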

[5] = Pseudomonas aeruginosa ATCC BAA-3107 (PA-SEN)
[6] = Pseudomonas aeruginosa LESB 58 (PA-MDR)
[7] = Acinetobacter baumannii ATCC 17978 (AB-SEN)
[8] = Acinetobacter baumannii ATCC BAA-1605 (AB-MDR)
[9] = Klebsiella pneumoniae ATCC 10031 (KP-SEN)
[10] = Klebsiella pneumoniae ATCC 700603 (KP-MDR)
[11] = Klebsiella pneumoniae ATCC 10031 (KP-SEN), ancestor strain, sheet fig 2a
[12] = ancestor KP-SEN (Klebsiella pneumoniae ATCC 10031)
[13] = KP-SEN (K. pneumoniae ATCC 10031), evolved line 2 of the given antibiotic
[14] = KP-SEN (K. pneumoniae ATCC 10031), evolved line 4 of the given antibiotic
[15] = KP-SEN (K. pneumoniae ATCC 10031), evolved line 5 of the given antibiotic
[16] = KP-SEN (K. pneumoniae ATCC 10031), evolved line 7 of the given antibiotic
[17] = KP-SEN (K. pneumoniae ATCC 10031), evolved line 8 of the given antibiotic

## POL7306
[1]; [5]
  MIC: 2 µg/mL
[1]; [6]
  MIC: 8 µg/mL
[2]; [7]
  MIC: 1 µg/mL
[2]; [8]
  MIC: 1 µg/mL
[3]; [9]
  MIC: 1 µg/mL
[3]; [10]
  MIC: 1 µg/mL
[4]; Klebsiella pneumoniae ATCC 10031 (KP-SEN), evolved line 1
  Relative MIC: 1
[4]; Klebsiella pneumoniae ATCC 10031 (KP-SEN), evolved line 4
  Relative MIC: 32
[4]; Klebsiella pneumoniae ATCC 10031 (KP-SEN), evolved line 7
  Relative MIC: 1
[4]; Klebsiella pneumoniae ATCC 10031 (KP-SEN), evolved line 8
  Relative MIC: 32
[4]; Klebsiella pneumoniae ATCC 10031 (KP-SEN), evolved line 10
  Relative MIC: 64
[4]; Klebsiella pneumoniae ATCC 700603 (KP-MDR), evolved line 1
  Relative MIC: 16
[4]; Klebsiella pneumoniae ATCC 700603 (KP-MDR), evolved line 2
  Relative MIC: 256
[4]; Klebsiella pneumoniae ATCC 700603 (KP-MDR), evolved line 3
  Relative MIC: 256
[4]; Klebsiella pneumoniae ATCC 700603 (KP-MDR), evolved line 4
  Relative MIC: 256
[4]; Klebsiella pneumoniae ATCC 700603 (KP-MDR), evolved line 5
  Relative MIC: 256
[4]; Klebsiella pneumoniae ATCC 700603 (KP-MDR), evolved line 6
  Relative MIC: 256
[4]; Klebsiella pneumoniae ATCC 700603 (KP-MDR), evolved line 8
  Relative MIC: 256
[4]; Klebsiella pneumoniae ATCC 700603 (KP-MDR), evolved line 10
  Relative MIC: 16

## Tridecaptin M152-P3
[1]; [5]
  MIC: 32 µg/mL
[1]; [6]
  MIC: >32 µg/mL
[2]; [7]
  MIC: 8 µg/mL
[2]; [8]
  MIC: 8 µg/mL
[3]; [11]
  MIC of ancestor: 4 µg/mL
[3]; [9]
  MIC: 4 µg/mL
[3]; [10]
  MIC: 8 µg/mL
[3]; [12]
  MIC of ancestor: 4 µg/mL
[4]; [13]
  MIC of evolved line: 32 µg/mL
[4]; [14]
  MIC of evolved line: 8 µg/mL
[4]; [15]
  MIC of evolved line: 64 µg/mL
[4]; KP-SEN (K. pneumoniae ATCC 10031), evolved line 6 of the given antibiotic
  MIC of evolved line: 64 µg/mL
[4]; [16]
  MIC of evolved line: 64 µg/mL
[4]; [17]
  MIC of evolved line: 4 µg/mL

## polymyxin-B
[1]; P. aeruginosa ATCC BAA 3107 (PA-SEN), ancestor strain, sheet fig 2a
  MIC of ancestor: 1 µg/mL
[1]; P. aeruginosa LESB 58 (PA-MDR), ancestor strain, sheet fig 2a
  MIC of ancestor: 2 µg/mL
[1]; Pseudomonas aeruginosa LESB 58 (PA-MDR), ancestor
  MIC of ancestor: 2 µg/mL
[1]; ancestor PA-MDR (Pseudomonas aeruginosa LESB 58)
  MIC of ancestor: 2 µg/mL
[1]; ancestor PA-SEN (Pseudomonas aeruginosa ATCC BAA 3107)
  MIC of ancestor: 1 µg/mL
[2]; Acinetobacter baumannii ATCC 17978 (AB-SEN), ancestor strain, sheet fig 2a
  MIC of ancestor: 1 µg/mL
[2]; Acinetobacter baumannii ATCC BAA 1605 (AB-MDR), ancestor
  MIC of ancestor: 1 µg/mL
[2]; Acinetobacter baumannii ATCC BAA 1605 (AB-MDR), ancestor strain, sheet fig 2a
  MIC of ancestor: 1 µg/mL
[2]; ancestor AB-SEN (Acinetobacter baumannii ATCC 17978)
  MIC of ancestor: 1 µg/mL
[3]; [11]
  MIC of ancestor: 2 µg/mL
[3]; Klebsiella pneumoniae ATCC 700603 (KP-MDR), ancestor
  MIC of ancestor: 1 µg/mL
[3]; Klebsiella pneumoniae ATCC 700603 (KP-MDR), ancestor strain, sheet fig 2a
  MIC of ancestor: 1 µg/mL
[3]; [12]
  MIC of ancestor: 2 µg/mL
[4]; KP-MDR ATCC 700603, evolved line 1
  MIC of evolved line: 512 µg/mL
[4]; KP-MDR ATCC 700603, evolved line 2
  MIC of evolved line: 512 µg/mL
[4]; KP-MDR ATCC 700603, evolved line 3
  MIC of evolved line: 256 µg/mL
[4]; KP-MDR ATCC 700603, evolved line 4
  MIC of evolved line: 256 µg/mL
[4]; KP-MDR ATCC 700603, evolved line 5
  MIC of evolved line: 256 µg/mL
[4]; KP-MDR ATCC 700603, evolved line 6
  MIC of evolved line: 256 µg/mL
[4]; KP-MDR ATCC 700603, evolved line 7
  MIC of evolved line: 256 µg/mL
[4]; KP-MDR ATCC 700603, evolved line 8
  MIC of evolved line: 512 µg/mL
[4]; KP-MDR ATCC 700603, evolved line 9
  MIC of evolved line: 256 µg/mL
[4]; KP-MDR ATCC 700603, evolved line 10
  MIC of evolved line: 256 µg/mL
[4]; KP-SEN (K. pneumoniae ATCC 10031), evolved line 1 of the given antibiotic
  MIC of evolved line: 512 µg/mL
[4]; [13]
  MIC of evolved line: 1020 µg/mL
[4]; KP-SEN (K. pneumoniae ATCC 10031), evolved line 3 of the given antibiotic
  MIC of evolved line: 1020 µg/mL
[4]; [14]
  MIC of evolved line: 256 µg/mL
[4]; [15]
  MIC of evolved line: 1020 µg/mL
[4]; [16]
  MIC of evolved line: 256 µg/mL
[4]; [17]
  MIC of evolved line: 256 µg/mL
[4]; KP-SEN (K. pneumoniae ATCC 10031), evolved line 9 of the given antibiotic
  MIC of evolved line: 1020 µg/mL
[4]; KP-SEN (K. pneumoniae ATCC 10031), evolved line 10 of the given antibiotic
  MIC of evolved line: 32 µg/mL
